Several values for one entry are separate records, joined by “and”; a condition that tells them apart may be missing. Identical values can stand only once.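 Where inhibition never reached the appropriate level, the endpoint shown equals the highest concentration tested. Otherwise, values were interpolated linearly from a five-concentration, 48-hour dose response in 96-well plates. Here, GI50 denotes the concentration required for 50% inhibition of growth. The concentration for full growth arrest is given as TGI.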
Experiments:
Test in all cases: DTP human tumour cell line panel, 48 h
IGROV1 ovarian = test system: IGROV1 ovarian
SK-MEL-2 melanoma = test system: SK-MEL-2 melanoma
DU-145 prostate = test system: DU-145 prostate
M14 melanoma = test system: M14 melanoma
A498 renal = test system: A498 renal
TK-10 renal = test system: TK-10 renal
HT29 colon = test system: HT29 colon
LOX IMVI melanoma = test system: LOX IMVI melanoma
786-0 renal = test system: 786-0 renal
SK-MEL-5 melanoma = test system: SK-MEL-5 melanoma

SMILES	GI50 (IGROV1 ovarian)	TGI (IGROV1 ovarian)	GI50 (SK-MEL-2 melanoma)	TGI (SK-MEL-2 melanoma)	GI50 (DU-145 prostate)	TGI (DU-145 prostate)	GI50 (M14 melanoma)	TGI (M14 melanoma)	GI50 (A498 renal)	TGI (A498 renal)	GI50 (TK-10 renal)	TGI (TK-10 renal)	GI50 (HT29 colon)	TGI (HT29 colon)	GI50 (LOX IMVI melanoma)	TGI (LOX IMVI melanoma)	GI50 (786-0 renal)	TGI (786-0 renal)	GI50 (SK-MEL-5 melanoma)	TGI (SK-MEL-5 melanoma)
COc1ccc(C2C3=C(NC(=O)C2C#N)c2ccc4ccccc4c2OCC3)cc1 (stereo unspecified)	> 100 µM	> 100 µM	> 100 µM	> 100 µM	31.4 µM	> 100 µM	90.2 µM	> 100 µM	10.6 µM	64.6 µM	29.5 µM	76.8 µM	> 100 µM	> 100 µM	18.6 µM	37.5 µM	30.2 µM	86.4 µM	> 100 µM	> 100 µM
COc1ccc(-c2cc3cccc(OC)c3c(=O)o2)cc1OC	> 100 µM	> 100 µM	> 100 µM	> 100 µM	0.795 µM	> 100 µM	93.9 µM	> 100 µM	81.7 µM	> 100 µM	> 100 µM	> 100 µM	8.49 µM	> 100 µM	11.5 µM	> 100 µM	50.2 µM	> 100 µM	4.14 µM	40.8 µM
COc1cc(-c2c3c(cn2S(=O)(=O)c2ccccc2)-c2nc(N)sc2CC3)cc(OC)c1OC	2.23 µM	75.1 µM	0.596 µM	12.7 µM	1.54 µM	41.9 µM	0.612 µM	> 100 µM	0.56 µM	22.3 µM	5.2 µM	30.1 µM	0.384 µM	3.44 µM	0.987 µM	> 100 µM	1.71 µM	19.7 µM	0.579 µM	18.8 µM
CC1(C)CCC(S(=O)(=O)c2ccc3c(c2)/C(=N\O)c2cc(S(=O)(=O)N4CCC(O)(c5cccc(C(F)(F)F)c5)CC4)ccc2-3)CC1	0.0491 µM	1.07 µM	0.0179 µM	0.0364 µM	0.0319 µM	0.115 µM	0.019 µM	0.0375 µM	1.69 µM	3.85 µM	0.0441 µM	0.393 µM	0.0257 µM	0.0723 µM	0.0183 µM	0.0381 µM	0.145 µM	0.36 µM	0.0454 µM	0.18 µM
Cc1nc2sc(C(=O)Nc3cccc4ccccc34)c(N)c2cc1C(C)O (stereo unspecified)	0.308 µM	> 50 µM	0.219 µM	> 50 µM	0.247 µM	> 50 µM	0.176 µM	> 50 µM	0.0756 µM	1.02 µM	32.2 µM	> 50 µM	0.191 µM	14.9 µM	0.264 µM	> 50 µM	0.227 µM	> 50 µM	0.185 µM	5.81 µM
O=C(NNc1nc2cc(F)ccc2n2c(CN3CCOCC3)ccc12)c1ccccc1	0.139 µM	1.47 µM	1.04 µM	8.06 µM	0.358 µM	4.78 µM	0.173 µM	1.26 µM	0.495 µM	2.26 µM	0.276 µM	7.07 µM	0.449 µM	7.48 µM	0.119 µM	1.43 µM	0.305 µM	1.98 µM	0.438 µM	2.06 µM
CCOc1ccc(NC(=O)Nc2cc(C(C)C)ccc2C)cc1	6.37 µM	15.7 µM	18 µM	55.6 µM	9.57 µM	> 58.4 µM	21.9 µM	> 100 µM	3.65 µM	18.6 µM	2.21 µM	6.61 µM	32.8 µM	> 100 µM	8.9 µM	> 100 µM	2.64 µM	6.72 µM	> 51.9 µM	> 100 µM
CN(C(=O)c1ccc(F)cc1C(F)(F)F)C1CCN(c2nnc(-c3ccnn3C)c3ccccc23)CC1	57.3 µM	> 100 µM	29.9 µM	> 100 µM	75.4 µM	> 100 µM	46.7 µM	> 100 µM	54.8 µM	> 100 µM	65.6 µM	> 100 µM	55.5 µM	> 100 µM	61.5 µM	> 100 µM	> 100 µM	> 100 µM	11.6 µM	30 µM
COc1ccc(OC)c(/C=C/[N+](=O)[O-])c1	2 µM and 3.79 µM	6.97 µM and 8.79 µM		5.48 µM and 9.88 µM	2.57 µM	8.37 µM and 10.5 µM		4.44 µM and 6.86 µM	3.26 µM	8.42 µM and 8.29 µM	1.86 µM and 5.04 µM	4.58 µM and 10.5 µM		6.33 µM and 7.41 µM	1.09 µM	12.6 µM and 3.78 µM		4.09 µM and 3.21 µM	2.06 µM	4.29 µM and 6.58 µM
